Assay results from patent US20060148772A1, “Combination” (priority 2004, published 2006).
Entries after “also recorded” stand apart in the source; their conditions may differ.

Columns and labels:
ZR75.1 tumour xenografts = experiment: Growth of ZR75.1 tumour xenografts in vivo; set-up: species or system Mice; settings: ZR75.1A3 xenografts under androstenedione, p.o.
Protocol: Experimental study groups consisted of 6 animals. All tumours were grown to approximately 7 mm diameter under E2 support. Once the tumours were established, the E2 pellet was removed and replaced with androstenedione. Mice were then randomised into cages and treated as described below. Tumours were assessed twice weekly by bi-dimensional caliper measurements and volume calculated based on the volume of a sphere 4/3 […]. Data was expressed as fold change in tumour volume compared to day zero treatment for each treatment group.
Effect of 6-[4-(4-ethyl-piperazin-1-ylmethyl)-phenyl]-7H-pyrrolo[2,3-d]pyrimidin-4-yl}-(1-[phenyl-ethyl)-amine in combination with endocrine therapy was investigated in ZR75.1A3.
Groups: • (i) Vehicle (10% N-methyl-pyrollidone (NMP)/90% polyethylene glycol (PEG 300)).

BT474 (ER+, HER2++) = experiment: Proliferation assay, aromatase expressing BT474 clones; assay type: cell-based, Human; settings: for proliferation response to increasing doses (fold change): BT474 aromatase clones, versus DCC medium alone (E2, androstenedione) or androstenedione alone (4-OH tamoxifen, letrozole); for IC50: Homo sapiens
Protocol: (§1) Human breast cancer cell lines with varying expression of ER and HER2 were engineered to express aromatase. The cell lines were MCF7 (ER+,HER2−), ZR75.1 (ER+,HER2+), BT474 (ER+, HER2++) and SKBR3 (ER−, HER2++).
(§2) Proliferation assays were carried out as follows. The target cell lines listed above were cultured in phenol red-free RPMI 1640 medium containing 10% charcoal stripped foetal calf serum and 10[…]g.ml insulin (DCC medium), with daily changes for 3 days. The cell lines were then seeded in to 12-well plates at an appropriate density (MCF7 1×10^4/well, ZR75.1 2×10^4/well, BT474 2×10^4/well, SKBR3 1×10^4/well). After 24-48 hours, the cell monolayers were treated with increasing concentrations of androstenedione or E2. […] Drug treatments were changed daily over a period of 6 days. Cell number was determined using a Z1 Coulter Counter (Beckman Coulter, UK). With the threshold set at 15 μm diameter, 75% the average 20 μm size of MCF7 cells.

MCF7 (ER+,HER2−) = experiment: Proliferation assay, aromatase expressing MCF7 clones; assay type: cell-based, Human; settings: for proliferation response to increasing doses (fold change): MCF7 aromatase clones, versus DCC medium alone (E2, androstenedione) or androstenedione alone (4-OH tamoxifen, letrozole); for IC50: Homo sapiens
Protocol: as §1, §2

ZR75.1 (ER+,HER2+) = experiment: Proliferation assay, aromatase expressing ZR75.1 clones; assay type: cell-based, Human; settings: for proliferation response to increasing doses (fold change): ZR75.1 aromatase clones, versus DCC medium alone (E2, androstenedione) or androstenedione alone (4-OH tamoxifen, letrozole); for IC50: Homo sapiens
Protocol: as §1, §2

[1] = test system: ER-α-mediated transcription; experiment: ERα transactivation luciferase reporter assay (pEREtkIIluc); assay type: cell-based, Human
Protocol: ERα transactivation was monitored using a standard reporter construct consisting of two EREs upstream of a minimal thymidine kinase reporter linked to a gene encoding luciferase (pEREtkIIluc). Activity was normalized using a second plasmid consisting of the β-galactosisdase gene downstream of the constitutively active simian virus 40 promoter (SV40)(pCH110). The target cell lines indicated, were cultured in DCC medium as described previously. Cells were then seeded into 24-well plates at a density of 7×10^5 cells/well (MCF7, ZR75.1 and SKBR3). The following day the cells were transfected by lipofectin (Life Technologies, Inc.) at a ratio of 1:2.5 (DNA:lipid) with 0.25 μg of EREIItkluc and 0.25 μg of pCH110 for 4 hours in serum-free phenol red-free RPMI 1640 medium. The cells were subsequently placed in DCC medium and left to recover overnight. BT474 cells were treated similarly but with the exception that cells were seeded at a density of 1×10^5 cells/well and monolayers were transfected by lipofectamine 2000 (Life Technologies, Inc.) at a ratio of 1:2.5 with 0.4 μg pEREtkIIluc and 0.4 μg pCH110 per well for 4 hours. […] After treatment for 24 hours, the luciferase (Promega, UK) and β-galactosidase (Galacton Star, PE Biosystems, UK) activity were measured using a luminometer.

MCF7A2 cell line = experiment: Cell cycle FACS analysis (propridium iodide), MCF7A2; assay type: cell-based, Human; settings: MCF7A2, androstenedione, 72 hours
Protocol: (§3) Cell lines were depleted of steroid for 3 days in DCC medium then seeded in 10 cm dishes at a density of 1×10^6 cells. After 48 hours, appropriate monolayers were pretreated with 6-[4-(4-ethyl-piperazin-1-ylmethyl)-phenyl]-7H-pyrrolo[2,3-d]pyrimidin-4-yl}-(1-[phenyl-ethyl)-amine for 1 hour in DCC medium. […] In the case of MCF7 and ZR75.1 the 6-[4-(4-ethyl-piperazin-1-ylmethyl)-phenyl]-7H-pyrrolo[2,3-d]pyrimidin-4-yl}-(1-[phenyl-ethyl)-amine concentration was increased to 5 μM. Cell were treated for 72 hours then fixed with 70% ethanol and stained with Propridium iodide. FACS analysis was used to establish the effect of the drug combinations on cell cycle.

BT474 A3 = experiment: Cell cycle FACS analysis (propridium iodide), BT474 A3; assay type: cell-based, Human; settings: BT474 A3, androstenedione, 72 hours
Protocol: as §3

total or pHER2 = experiment: Western blot of HER2 signal transduction: HER2; assay type: cell-based, Human; settings: 0.1, 1 and 10 μM, 8 hours
Protocol: (§4) Western Blot analysis of the effect of 6-[4-(4-ethyl-piperazin-1-ylmethyl)-phenyl]-7H-pyrrolo[2,3-d]pyrimidin-4-yl}-(1-[phenyl-ethyl)-amine on HER2 signal transduction.
(§5) Target cell lines were stripped of steroid for 3 days in DCC medium prior to seeding at a density of 1.5-2×10^6 cells per 10 cm dish. Monolayers were left to acclimatize for 24 hours prior to treatment with 0, 0.1, 1 and 10 μM 6-[4-(4-ethyl-piperazin-1-ylmethyl)-phenyl]-7H-pyrrolo[2,3-d]pyrimidin-4-yl}-(1-[phenyl-ethyl)-amine in DCC medium for 8 hours. […] The protein concentration was then quantified using BioRad protein assay kit (Bio Rad, UK). […] Filters were blocked (10 mM Tris-HCl, pH 8.3, 150 mM NaCl containing 4% milk powder) washed twice in PBS containing 0.025% Tween-20 and probed with specific antibodies (p HER2 and total HER2 (Upstate, UK), pAKT, total AKT, pMAPK and total MAPK (Cell signaling, UK) and HRP-conjugated secondary antibody (Amersham Pharmacia Biotech, UK). The antibodies were diluted 1/1000 in 1.5% bovine serum albumin, 10 mM Tris-HCl, pH 8.3, 150 mM NaCl, 0.025% Tween-20 and 0.01% sodium azide. Immuno complexes were detected using Ultra-Signal chemiluminescence kit (Pierce and Warriner, UK). Chemiluminescence was quantified using Fluro-S and analysed using Quantity One software (BioRad, UK).

SKBR3 (ER−, HER2++) = experiment: Proliferation assay, SKBR3 clones; assay type: cell-based; settings: Homo sapiens, SK-BR-3; effect on proliferation, fold change compared to DCC medium alone
Protocol: as §1
as §2, with “cells. Cell counts were averaged for each triplicate treatment and normalised against the control sample to give the average fold-difference in cell growth.” for “cells.”

pAKT = experiment: Western blot of HER2 signal transduction: AKT; assay type: cell-based, Human; settings: all of the cell lines tested; 0.1, 1 and 10 μM, 8 hours
Protocol: as §4, §5

pMAPK = experiment: Western blot of HER2 signal transduction: MAPK; assay type: cell-based, Human; settings: 0.1, 1 and 10 μM, 8 hours
Protocol: as §4, §5

SMILES | tumour growth / tumour volume (fold change compared to day zero) (ZR75.1 tumour xenografts) | proliferation response to increasing doses (fold change) (BT474 (ER+, HER2++)) | proliferation response to increasing doses (fold change) (MCF7 (ER+,HER2−)) | proliferation response to increasing doses (fold change) (ZR75.1 (ER+,HER2+)) | ER-α-mediated transcription ([1]; ER+ cell lines) | number of cells in G0/G1 (MCF7A2 cell line) | number of cells in G0/G1 (BT474 A3) | also measured
CC/C(=C(\c1ccc(O)cc1)c1ccc(OCCN(C)C)cc1)c1ccccc1 [4-OH tamoxifen] | as affective as AEE788 | dose dependent decrease in proliferation | dose dependent decrease in proliferation | dose dependent decrease in proliferation | – | – | – | –
C[C@]12CC[C@@H]3c4ccc(O)cc4CC[C@H]3[C@@H]1CC[C@@H]2O [E2] | – | dose dependent increase in proliferation | dose dependent increase in proliferation | dose dependent increase in proliferation | increased ER-[…]-mediated transcription in a dose-dependent manner | – | – | –
N#Cc1ccc(C(c2ccc(C#N)cc2)n2cncn2)cc1 [Letrozole, 4-[α-(4-cyanophenyl)-1-(1,2,4-triazolyl)methyl]-benzonitrile] | markedly inhibited; also recorded: more effective than 4-OH tamoxifen alone or in combination with AEE788 | dose dependent decrease in proliferation | dose dependent decrease in proliferation | dose dependent decrease in proliferation | inhibited | increase in the number of cells in G0/G1 | more effective than tamoxifen at arresting cells in G0/G1 | IC50 (BT474 (ER+, HER2++); BT-474, 144 h, inhibition of proliferation, aromatase expressing clones, androstenedione, 6 days): 5 nM; IC50 (MCF7 (ER+,HER2−); MCF7, 144 h, inhibition of proliferation, aromatase expressing clones, androstenedione, 6 days): 5 nM; IC50 (ZR75.1 (ER+,HER2+); ZR-75-1, 144 h, inhibition of proliferation, aromatase expressing clones, androstenedione, 6 days): 1 nM
CC/C(=C(\c1ccccc1)c1ccc(OCCN(C)C)cc1)c1ccccc1 [Tamoxifen] | – | – | – | – | inhibited | increase in the number of cells in G0/G1 | – | –
C[C@]12CCC(=O)C=C1CC[C@@H]1[C@@H]2CC[C@]2(C)C(=O)CC[C@@H]12 [androstenedione] | – | dose dependent increase in proliferation | dose dependent increase in proliferation | dose dependent increase in proliferation | increased ER-[…]-mediated transcription in a dose-dependent manner | – | – | –
CCN1CCN(Cc2ccc(-c3cc4c(N[C@H](C)c5ccccc5)ncnc4[nH]3)cc2)CC1 [{6-[4-(4-ethyl-piperazin-1-ylmethyl)-phenyl]-7H-pyrrolo[2,3-d]pyrimidin-4-yl}-(1-[phenyl-ethyl)-amine] | modest inhibitory effect on tumour growth in the magnitude of that seen with tamoxifen | – | – | – | – | increase in the number of cells in G0/G1 | more effective than tamoxifen at arresting cells in G0/G1 | IC50 (BT474 (ER+, HER2++); BT-474, effect on proliferation, fold change compared to DCC medium alone): 500 nM; effect on total or pHER2 (total or pHER2): no obvious effect on total or pHER2; IC50 (SKBR3 (ER−, HER2++)): 1500 nM; IC50 (MCF7 (ER+,HER2−); MCF7, effect on proliferation, fold change compared to DCC medium alone): 5000 to 10000 nM; effect on pAKT (pAKT): decreased in a dose dependent manner; effect on pMAPK (pMAPK; MCF7 cells): no effect on MCF7 cells; effect on pMAPK (pMAPK; ZR75.1, BT474 and SKBR3 cell lines): decrease of pMAPK; ER-α-mediated transcription ([1]; cell line BT474 (ER+, HER2++), basal and AND-induced): dose dependent decrease; ER-mediated transcription ([1]; cell lines expressing low levels of HER2 (MCF7 and ZR75.1)): little effect; IC50 (ZR75.1 (ER+,HER2+); ZR-75-1, effect on proliferation, fold change compared to DCC medium alone): 2000 to 5000 nM
